The values below come from patent publication US20230071390A1, “ASSESSMENT OF PR CELLULAR SIGNALING PATHWAY ACTIVITY USING MATHEMATICAL MODELLING OF TARGET GENE EXPRESSION” (InnoSIGN B.V., priority 2019, published 2023).

Assay [1] concerns PR cellular signaling pathway. As to the kind of experiment: PR pathway activity inferred by Bayesian network models, ishikawa IKPR-AB36 endometrium cell line (GSE29435). The assay is classed as cell-based. To be noted: PR-A, PR-B and PR-A&B models; 1 nM, 48h; versus control treated samples. An excerpt: (§1) Herein, an exemplary Bayesian network model as shown in FIG. 1 was used to model the transcriptional program of the PR cellular signaling pathway in a simple manner. The model consists of three types of nodes: (a) a transcription factor (TF) element (with states “absent” and “present”) in a first layer 1; (b) target genes TG1, TG2, TGn (with states “down” and “up”) in a second layer 2, and; (c) measurement nodes linked to the expression levels of the target genes in a third layer 3. These can be microarray probesets PS1,1, PS1,2, PS1,3, PS2,1, PSn,1, PSn,m (with states “low” and “high”), as preferably used herein, but could also be other gene expression measurements such as RNAseq or RT-qPCR.
(§2) Once the exemplary Bayesian network model is built and calibrated (see below), the model can be used on microarray data of a new sample by entering the probeset measurements as observations in the third layer 3, and inferring backwards in the model what the probability must have been for the TF element to be “present”. Here, “present” is considered to be the phenomenon that the TF element is bound to the DNA and is controlling transcription of the cellular signaling pathway's target genes, and “absent” the case that the TF element is not controlling transcription.
(§3) The models are identified by their target gene list and calibration set. […]

Assay [2] has as its system PR cellular signaling pathway. Kind of assay: PR pathway activity inferred by Bayesian network models, PR-B expressing hMEC breast cell line (GSE24468). Format: cell-based. To be noted: PR-A, PR-B and PR-A&B models; 10 nM, 16h; versus control treated samples.
Excerpt: as §1, §2, §3

Assay [3] deals with PR-B cellular signaling pathway. As to the kind of experiment: PR-B pathway activity in paired pre/post letrozole treatment breast cancer samples (GSE10281). To be noted: ER positive breast cancer patients, 3 months neoadjuvant treatment. The assay is classed as in vivo, human.
Excerpt: as §1, §2, §3

The test system of assay [4] is tumor growth in xenograft models. To be noted: cited from earlier work.

SMILES strings stand for the structures.

Take `CC(=O)O[C@]1(C(C)=O)CC[C@H]2[C@@H]3C[C@H](C)C4=CC(=O)CC[C@]4(C)[C@H]3CC[C@@]21C` [MPA, medroxyprogesterone acetate]: the “PR cellular signaling pathway activity levels (odds PR on:off)” value in assay [1] was “significantly higher”.
For `CCC(=O)[C@@]1(C)CC[C@H]2[C@@H]3CCC4=CC(=O)CCC4=C3CC[C@@]21C` [R5020, promegestone], the “PR cellular signaling pathway activity levels” value in assay [2] is recorded as “significantly higher”.
For the compound `N#Cc1ccc(C(c2ccc(C#N)cc2)n2cncn2)cc1` [letrozole], the “Normalized PR-B cellular signaling pathway activity levels, post vs. pre treatment” value in assay [3] (non-responders) was “remain similar to pre-treatment”. In addition, the “Mean normalized PR-B cellular signaling pathway activity, post vs. pre treatment” value in assay [3] (responders) was “goes up”.
Take `CC(=O)[C@H]1CC[C@H]2[C@@H]3CCC4=CC(=O)CC[C@]4(C)[C@H]3CC[C@]12C` [progesterone, Progesterone]: the “Effect over tamoxifen regarding controlling tumor growth” value in assay [4] is on record as “additive effect”.
